The text below walks through data of US8309760B2, “Process for purification of aryl carboxylic acids” (University of Alabama, priority 2007, dated 2012).

The conditions of series [1]: cited from earlier work.
The format of series [2] is physicochemical. How it is done:
Examples illustrating the dissolution and aqueous reconstitution of terephthalic acid from ionic liquids follow the same general experimental protocol. However, it should be noted that the ionic liquids chosen are by far non-limiting examples of terephthalic acid dissolution in ionic liquids. To a vial containing 100 mg of an ionic liquid is added 10 mg of terephthalic acid and the mixture is heated to 75° C. to reduce the viscosity of the resulting liquid. The solution is stirred on a hot plate in an oil bath for 24 hours, whereupon the solutions are visually checked for dissolution. Aqueous reconstitution of the terephthalic acid is achieved by the addition of 500 mL deionized water (polished to 18.1-18.3 MΩ cm). Crystalline terephthalic acid separates from the ionic liquid as a flock, washed with copious amounts of deionized water and vacuum filtered, then dried in ambient conditions and ground with a spatula to give the desired crystalline terephthalic acid.

Like-named read-outs stand apart in the source and are kept apart here.

Consider `O=Cc1ccc(C(=O)O)cc1` [4-Carboxybenzaldehyde, 4-carboxybenzaldehyde], for which the solubility in water result in series [1] (no temperature given) is recorded as “soluble”.

In the case of `O=C(O)c1ccc(C(=O)O)cc1` [terephthalic acid], the “solubility in various ionic liquids” value in series [2] is recorded as “soluble”. In series [1] (temperature of about 300° C.), the “solubility of terephthalic acid in water” value is “about 40%”. The solubility in water entry in series [1] (temperatures below about 200° C.) is listed as “insoluble”.
